From article PMC4685510, “A Cell Biologist’s Field Guide to Aurora Kinase Inhibitors” (Frontiers in Oncology, 2015)
Read-outs that look alike come from different tables or passages of the source.

What was measured:
Assay in all cases: biochemical
Type in all cases: biochemical
[1] = molecular target: T1, 363 human kinases (including Aurora A/B/C) (Homo sapiens, UniProt P51955); conditions: NEK2; for remaining activity at 0.1 µM: 100 nM; for remaining activity at 0.1 µM / remaining activity at 0.5 µM: read-out: % Enzyme Activity (relative to DMSO controls)
T1 sequence (P51955 1-445): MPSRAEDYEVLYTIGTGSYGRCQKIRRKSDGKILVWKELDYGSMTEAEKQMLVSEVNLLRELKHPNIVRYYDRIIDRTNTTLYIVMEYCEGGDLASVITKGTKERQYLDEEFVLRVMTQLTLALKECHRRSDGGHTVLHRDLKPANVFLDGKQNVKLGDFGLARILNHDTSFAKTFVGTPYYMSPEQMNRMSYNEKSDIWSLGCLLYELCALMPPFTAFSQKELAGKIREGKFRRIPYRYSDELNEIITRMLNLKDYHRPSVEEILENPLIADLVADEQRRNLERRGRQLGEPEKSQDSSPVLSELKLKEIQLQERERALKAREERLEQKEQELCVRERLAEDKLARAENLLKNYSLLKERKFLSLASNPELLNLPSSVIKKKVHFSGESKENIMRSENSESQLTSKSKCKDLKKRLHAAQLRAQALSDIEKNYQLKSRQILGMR
Excerpt: (§1) However, the Aurora A/B selectivity ratios derived from our in vitro and in vivo data can be compared to prioritize inhibitors.

[2] = molecular target: 363 human kinases (including Aurora A/B/C) (Homo sapiens, UniProt P24941); conditions: for remaining activity at 0.1 µM: 100 nM; for remaining activity at 0.1 µM / remaining activity at 0.5 µM: read-out: % Enzyme Activity (relative to DMSO controls); for remaining activity at 0.5 µM / % Enzyme Activity (relative to DMSO controls): 500 nM
Excerpt: as §1

[3] = molecular target: 363 human kinases (including Aurora A/B/C) (Homo sapiens, UniProt Q7KZI7); conditions: MARK2/PAR-1Ba; for remaining activity at 0.1 µM: 100 nM; for remaining activity at 0.1 µM / remaining activity at 0.5 µM: read-out: % Enzyme Activity (relative to DMSO controls)
Excerpt: as §1

[4] = molecular target: T2, 363 human kinases (including Aurora A/B/C) (Homo sapiens, UniProt P52333); conditions: JAK3; for remaining activity at 0.1 µM: 100 nM; for remaining activity at 0.1 µM / remaining activity at 0.5 µM: read-out: % Enzyme Activity (relative to DMSO controls)
T2 sequence (P52333 1-1124): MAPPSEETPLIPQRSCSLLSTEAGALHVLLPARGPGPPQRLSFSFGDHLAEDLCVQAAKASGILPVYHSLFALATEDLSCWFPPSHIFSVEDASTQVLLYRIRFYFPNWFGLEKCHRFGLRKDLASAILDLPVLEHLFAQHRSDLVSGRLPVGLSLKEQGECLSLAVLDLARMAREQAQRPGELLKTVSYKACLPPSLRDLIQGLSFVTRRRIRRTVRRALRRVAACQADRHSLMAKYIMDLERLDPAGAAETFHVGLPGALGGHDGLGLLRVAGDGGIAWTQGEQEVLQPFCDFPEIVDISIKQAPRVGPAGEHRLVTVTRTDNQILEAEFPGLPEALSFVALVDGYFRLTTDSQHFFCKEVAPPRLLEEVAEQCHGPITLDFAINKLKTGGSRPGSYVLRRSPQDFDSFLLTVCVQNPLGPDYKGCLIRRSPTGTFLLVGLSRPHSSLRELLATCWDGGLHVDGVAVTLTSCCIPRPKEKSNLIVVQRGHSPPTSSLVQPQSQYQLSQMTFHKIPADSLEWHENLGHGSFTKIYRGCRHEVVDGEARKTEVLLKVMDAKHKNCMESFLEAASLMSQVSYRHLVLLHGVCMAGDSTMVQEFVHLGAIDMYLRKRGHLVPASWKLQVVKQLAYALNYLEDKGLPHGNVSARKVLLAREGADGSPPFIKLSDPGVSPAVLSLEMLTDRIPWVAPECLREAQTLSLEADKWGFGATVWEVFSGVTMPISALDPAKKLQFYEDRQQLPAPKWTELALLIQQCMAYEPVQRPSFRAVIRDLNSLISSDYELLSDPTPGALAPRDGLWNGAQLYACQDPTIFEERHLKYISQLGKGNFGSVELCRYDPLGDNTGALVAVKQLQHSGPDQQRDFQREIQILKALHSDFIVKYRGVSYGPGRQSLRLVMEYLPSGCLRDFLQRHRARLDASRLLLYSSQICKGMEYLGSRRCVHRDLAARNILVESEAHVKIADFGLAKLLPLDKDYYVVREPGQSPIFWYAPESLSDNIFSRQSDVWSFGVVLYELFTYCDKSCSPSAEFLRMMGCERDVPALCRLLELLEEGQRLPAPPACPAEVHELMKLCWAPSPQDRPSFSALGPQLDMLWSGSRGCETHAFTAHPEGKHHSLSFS
Excerpt: as §1

[5] = molecular target: 363 human kinases (including Aurora A/B/C) (Homo sapiens, UniProt P27448); conditions: MARK3; for remaining activity at 0.1 µM: 100 nM; for remaining activity at 0.1 µM / remaining activity at 0.5 µM: read-out: % Enzyme Activity (relative to DMSO controls)
363 human kinases (including Aurora A/B/C) (Homo sapiens, UniProt P27448), sequence (P27448 whole entry): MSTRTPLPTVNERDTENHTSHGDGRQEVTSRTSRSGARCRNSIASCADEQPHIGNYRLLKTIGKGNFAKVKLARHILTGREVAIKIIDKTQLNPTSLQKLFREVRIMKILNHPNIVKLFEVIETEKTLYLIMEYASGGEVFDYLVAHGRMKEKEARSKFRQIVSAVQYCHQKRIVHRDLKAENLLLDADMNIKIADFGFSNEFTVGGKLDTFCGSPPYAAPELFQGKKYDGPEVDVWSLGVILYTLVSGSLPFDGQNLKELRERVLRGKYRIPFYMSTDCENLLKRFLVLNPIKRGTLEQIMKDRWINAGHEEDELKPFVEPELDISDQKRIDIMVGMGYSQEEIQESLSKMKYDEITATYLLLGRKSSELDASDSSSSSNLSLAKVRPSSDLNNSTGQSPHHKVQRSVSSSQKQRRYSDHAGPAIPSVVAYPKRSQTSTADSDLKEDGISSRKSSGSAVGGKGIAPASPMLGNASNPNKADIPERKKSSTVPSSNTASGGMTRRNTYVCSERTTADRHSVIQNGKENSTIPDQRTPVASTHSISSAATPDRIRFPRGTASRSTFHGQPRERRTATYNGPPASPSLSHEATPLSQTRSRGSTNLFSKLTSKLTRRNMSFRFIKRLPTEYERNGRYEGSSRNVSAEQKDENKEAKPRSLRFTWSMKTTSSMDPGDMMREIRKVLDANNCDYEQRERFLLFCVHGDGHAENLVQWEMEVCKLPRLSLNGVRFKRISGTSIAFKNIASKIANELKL
Excerpt: as §1

363 human kinases (including Aurora A/B/C) (Homo sapiens, UniProt Q7KZI7), sequence (Q7KZI7 whole entry): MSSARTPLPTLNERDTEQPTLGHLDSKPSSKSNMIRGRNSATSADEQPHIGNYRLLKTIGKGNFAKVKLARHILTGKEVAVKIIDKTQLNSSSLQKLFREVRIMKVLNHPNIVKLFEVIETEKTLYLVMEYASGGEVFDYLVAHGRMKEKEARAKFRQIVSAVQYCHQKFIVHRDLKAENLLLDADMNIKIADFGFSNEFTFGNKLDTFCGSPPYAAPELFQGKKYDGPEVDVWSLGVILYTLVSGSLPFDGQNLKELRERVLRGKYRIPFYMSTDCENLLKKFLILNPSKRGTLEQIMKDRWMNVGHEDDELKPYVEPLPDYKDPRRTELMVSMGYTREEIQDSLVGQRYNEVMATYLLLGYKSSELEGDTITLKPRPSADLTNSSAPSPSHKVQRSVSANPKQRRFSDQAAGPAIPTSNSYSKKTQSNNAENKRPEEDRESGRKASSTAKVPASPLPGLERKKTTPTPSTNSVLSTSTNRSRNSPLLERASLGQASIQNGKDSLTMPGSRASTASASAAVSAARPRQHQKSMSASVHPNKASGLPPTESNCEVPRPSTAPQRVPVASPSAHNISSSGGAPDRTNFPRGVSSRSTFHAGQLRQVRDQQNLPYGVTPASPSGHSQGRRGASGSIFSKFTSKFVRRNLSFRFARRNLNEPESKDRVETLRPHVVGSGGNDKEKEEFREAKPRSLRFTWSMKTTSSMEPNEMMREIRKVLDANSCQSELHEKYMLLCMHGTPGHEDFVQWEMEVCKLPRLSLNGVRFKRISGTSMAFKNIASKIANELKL

SMILES	remaining activity at 0.1 µM [1]	remaining activity at 0.1 µM ([2]; CDK2/Cyclin A1, [ATP] 100 µM)	remaining activity at 0.1 µM ([2]; CDK2/cyclin A, [ATP] 100 µM)	remaining activity at 0.1 µM ([2]; CDK2/cyclin E, [ATP] 5 µM)	remaining activity at 0.1 µM ([2]; CDK2/cyclin O, [ATP] 30 µM)	remaining activity at 0.1 µM [3]	remaining activity at 0.1 µM [4]	remaining activity at 0.1 µM [5]	remaining activity at 0.5 µM ([1]; 500 nM)	remaining activity at 0.5 µM ([2]; CDK2/Cyclin A1, [ATP] 100 µM)	remaining activity at 0.5 µM ([2]; CDK2/cyclin A, [ATP] 100 µM)	remaining activity at 0.5 µM ([2]; CDK2/cyclin E, [ATP] 5 µM)	remaining activity at 0.5 µM ([2]; CDK2/cyclin O, [ATP] 30 µM)	remaining activity at 0.5 µM ([3]; 500 nM)	remaining activity at 0.5 µM ([4]; 500 nM)	remaining activity at 0.5 µM ([5]; 500 nM)	further results
CCn1cc(-c2ccnc3[nH]c(-c4cccc(CN(C)C)c4)cc23)c(-c2ccc(NC(=O)N(C)C)cc2)n1 [GSK1070916]	110%	89.8%	104%	93%	94.7%	96.9%	97.2%	97.2%	–	–	–	–	–	–	–	–	–
O=C(O)[C@]1(Cc2cccc(Nc3nccs3)n2)CC[C@@H](Oc2cccc(Cl)c2F)CC1 [MK-5108]	84.3%	100%	97.7%	90.3%	88.6%	96.8%	31.4%	98.4%	105%	73.4%	75.7%	83.3%	84.7%	97.8%	6.75%	107%	–
O=C(c1cccc(Cl)c1F)N1CCN(Cc2cccc(Nc3nccs3)n2)CC1 [MK-8745]	–	–	–	–	–	–	–	–	104%	79.6%	85.1%	86.3%	90.6%	104%	85.6%	111%	% Enzyme Activity (relative to DMSO controls) ([1]; 500 nM): 103.20%; % Enzyme Activity (relative to DMSO controls) ([2]; CDK2/Cyclin A1, [ATP] 100 µM): 75.87%; % Enzyme Activity (relative to DMSO controls) ([2]; CDK2/cyclin A, [ATP] 100 µM): 83.95%; % Enzyme Activity (relative to DMSO controls) ([2]; CDK2/cyclin E, [ATP] 5 µM): 85.62%; % Enzyme Activity (relative to DMSO controls) ([2]; CDK2/cyclin O, [ATP] 30 µM): 90.54%; % Enzyme Activity (relative to DMSO controls) ([3]; 500 nM): 103.22%; % Enzyme Activity (relative to DMSO controls) ([4]; 500 nM): 84.37%; % Enzyme Activity (relative to DMSO controls) ([5]; 500 nM): 110.19%
